Assay results reported in patent US20020037885A1, “Therapeutic compounds” (priority 1999, published 2002).
Where two headings read alike, the source gives them in different places.

What was measured:
[1] = system: REM sleep in male Wistar rats; assay: Rat Sleep Analysis: suppression of REM sleep; format: in vivo; settings: first 3 hours after drug administration
Method: Suppression of REM sleep in male Wistar rats was measured after treatment with compounds according to the invention or reference antidepressants using the methods described by Ruigt et al.(Electroencephalography and clinic Neurophysiology, 1989, 73, pages 52-63 & 64-71)
The values reported in Table 1 are expressed as percentage change over placebo for the amount of REM sleep in the first 3 hours after drug administration.

[2] = system: hyperpolarisation-activated inward cation current Ih in dorsal root ganglion (DRG) cells; assay: Inhibition of hyperpolarisation-activated cation current (Ih), whole cell voltage clamp on cultured DRG cells; format: cell-based; settings: (-) log concentration at which Ih activation rate constant kact is reduced by 50%; mean; rat DRG cells
Method: A) determining the potency of compounds to inhibit the hyperpolarisation-activated inward cation current Ih in dorsal root ganglion (DRG) cells of the rat; the effect is measured as the decrease in Ih activation rate and is expressed as the half maximal effect concentration (IC50) or the negative logarithm of this IC50 (known as pIC50).
To obtain E15 DRGs, pregnant Wistar rats were sacrificed. Embryos were removed and spinal cords with DRG attached to both sides were dissected out and collected in Hanks balanced salt solution (HBSS; Gibco). DRG were separated from the spinal cord and pooled in HBSS without Ca^2+ and Mg^2+. Dissociation of intact DRG was started by incubation with a 0.25% trypsin solution for 30 min at 37° C. Trypsination was stopped by diluting the enzyme and centrifugation (1 min; 2500 rpm). After aspiration of the supernatant the tissue pellet was triturated with DMEMF10 (DMEM supplemented with 10% fetal bovine serum (Hyclone), 6 g/l glucose and 2 mM I-glutamine) and centrifuged for 10 min at 1700 rpm. Dissociated DRG cells were resuspended in culture medium (DMEMF10 with 50 ng/ml NGF 2.5S (Alomone labs)), counted and plated out in a density of 1-2.105 cells on collagen (50 μg/ml) and/or poly-l-lysine (10-20 μg/ml) coated glass coverslips in 24-well tissue culture plates. Plates were kept in a humidified incubator at 37° C. and 5% CO2 for 72 hrs. Glial cell proliferation was inhibited when necessary by adding cytosine arabinoside (Ara-c) at a concentration of 5.10^−7 M. After 3 days fresh culture medium was administered. Medium was subsequently changed every […].
DRG cells were sampled with the whole cell voltage clamp method. Glass electrodes were pulled from thick-walled borosilicate capillaries with filament (1 mm outer diameter). Pipette resistance was 2-5 MΩ. Series resistance (5-15 MΩ) was compensated for to ensure so that potential errors made in the determination of the actual membrane potential were less then 2 mV. Cell capacitance (10-75 pF) compensation was used to compensate for capacitive currents. The extracellular solution contained (in mM): NaCl 140; KCl 5; CaCl2 2; MgCl2 1; D(+) glucose 5.6;HEPES 5; Sucrose 30; pH=7.4. The pipette solution contained (in mM): K-gluconate 119; NaCl 5; KCl 13; CsCl 2; CaCl2 1; EGTA 10;HEPES 10; pH=7.2. Cells were preincubated for more then 1½ hours with different concentrations (1E-9 to 1E-4 M) of test compound dissolved in extracellular solution at room temperature (20° C.) in normal air. Larger cells that appeared round with a pronounced halo under phase-contrast microscopy were selected because almost all of them expressed Ih. Data were acquired with a Digidata 1200® analogue to digital interface using PCLAMP® software (both from Axon Instruments). For Ih activation the cell was held at −63 mV and stepped to −123mV (potentials after correction for liquid junction potential). Current traces were selected for soundness, averaged and fitted to a first order exponential using PCLAMP® software (fit between 60 and 950 ms to avoid biasing by transient currents). Activation time constants (τ) for Ih under different drug concentrations were derived from this fit. The activation rate constant for Ih is defined as kact=1/τ.
The pIC50 is the (-) log concentration of a compound at which the Ih activation rate constant kact is reduced by 50%. pIC50 for a compound could be estimated adequately by fitting kact to the logarithm of the concentration with a logistic function using PRISM® software (Graphpad Inc.). The function chosen is:
kact=A/(1+10^ (log([compound])+pIC50)); A is kact [compound]=0M.
Averaging all control measurements yields that A=3.52 s^−1 and the maximum kact was forced to this value for all compounds in this study. The Hill slope that normally is estimated in concentration-effect relations appeared to be about 1 and was subsequently fixed to this value. […]

[3] = system: marble burying behaviour in mice; assay: Mouse Marble Burying Assay (BUR); format: in vivo; settings: Mus musculus, sc
Method: This assay was carried out essentially according to the procedure described by Treit et al. (1981) Pharmacol Biochem Behav; 15; 619-626.
The results are presented as BUR ED50 (sc). This is the effective dose causing 50% inhibition of burying compared to control mice.

[4] = system: hyperpolarisation-activated inward cation current Ih in dorsal root ganglion (DRG) cells; assay: Inhibition of hyperpolarisation-activated cation current (Ih), whole cell voltage clamp on cultured DRG cells; format: cell-based, rat; settings: at 1E-5 M
[5] = system: Ih channel; settings: cited from earlier work
[6] = effective dose causing 50% inhibition of burying compared to control mice, read-out: BUR ED50 (SC)
[7] = Table 2, read-out: BUR sc ED50(mg/kg)

With `COCCCC/C(=N\OCCN)c1ccc(C(F)(F)F)cc1` [Fl, Fluvoxamine] the “percentage change over placebo for the amount of REM sleep” value (“percentage change over placebo” below) ([1]; dose 4.6 mg/kg IP) was 40% and the “percentage change over placebo” value ([1]; dose 22 mg/kg IP) was −100%.
Work on `C=CC[C@H](N)c1ccccc1-c1noc2cc(F)ccc12.O=C(O)/C=C/C(=O)O` [13(1), (S)-(−)-2-(6-fluoro-1,2-benzisoxazol-3-yl)-α-2-propenyl-benzenemethanamine (E)-butenedioate] yielded a pIC50-Ih [2] of 6.13, an ED50 [3, 6] of 1 mg/kg and a melting point of 146 to 149 °C.
In the case of `C=CCC(N)c1ccccc1-c1noc2ncccc12.O=C(O)/C=C\C(=O)O` (stereo not drawn) [16 (5), 2-(isoxazolo[5,4-b]pyridin-3-yl)-α-2-propenyl-benzenemethanamine (Z)-butenedioate], the ED50 ([3]; Table 3, read-out: BUR s.c. ED50) is reported as 1.7 mg/kg, the “Ih amplitude, inhibition” value [4] is reported as 90% inhibition at 1E-5 and the melting point is reported as 187 to 188 °C (dec.).
For `CCCCC(N)c1ccccc1-c1noc2ccccc12.Cl` (stereo not drawn) [Example 15, 2-(1,2-Benzisoxazol-3-yl)-α-butyl-benzenemethanamine Hydrochloride], the pIC50-Ih [2] was 5.98.
`C=CC[C@@H](N)c1ccccc1-c1noc2ccccc12.Cl` [Example 12, (R)-2-(1,2-Benzisoxazol-3-yl)-α-2-propenyl-benzenemethanamine Hydrochloride] showed a pIC50-Ih [2] of 5.12 and a melting point of 191 °C.
With `COc1ccc(C(CN(C)C)C2(O)CCCCC2)cc1` (stereo not shown) [Ve, Venlafaxine] the “percentage change over placebo” value ([1]; dose 3.2 mg/kg IP) was −77%.
In the case of `O=C(O)C(=O)O.c1ccc(CNCc2ccccc2-c2noc3ccccc23)cc1` [Example 21(3), 2-(1,2-benzisoxazol-3-yl)-N-benzyl-benzenemethanamine ethanedioate], the pIC50-Ih [2] is reported as 5.06 and the melting point is reported as 165 °C.
With `C=CC[C@H](N)c1cc(F)ccc1-c1noc2ccccc12.O=C(O)/C=C/C(=O)O` [Example 13(3), (S)-(−)-2-(1,2-benzisoxazol-3-yl)-5-fluoro-α-2-propenyl-benzenemethanamine (E)-butenedioate] the pIC50-Ih [2] was 5.98 and the melting point was 174 to 176 °C.
In the case of `CCN(c1ccccc1)c1cc(NC)[n+](C)c(C)n1` [ZD7288, 4-(N-ethyl-N-phenylamino)-1,2-dimethyl-6-(methyiamino)-pyrimidinium-chloride], the IC50 ([5]; Harris and Constanti 1995, read-out: IC50 for blocking Ih) is given as 2 µM.
With `CC(N)c1ccccc1-c1noc2ccccc12.Cl` (stereo not drawn) [Example 39, 2-(1,2-Benzisoxazol-3-yl)-α-methyl-benzenemethanamine Hydrochloride] the pIC50-Ih [2] was 5.24 and the melting point was 229 to 236 °C.
Compound `CC(O)c1ccccc1-c1noc2ccccc12` (stereo not drawn) [Example 27, 2-(1,2-Benzisoxazol-3-yl)-α-methyl-benzenemethanol] has a pIC50-Ih [2] of 5.50.
Work on `C=CC[C@H](N)c1ccccc1-c1noc2ccccc12.Cl` [Example 13, (S)-2-(1,2-Benzisoxazol-3-yl)-α-2-propenyl-benzenemethanamine Hydrochloride] yielded a pIC50-Ih [2] of 6.48, an ED50 [3, 6] of 0.39 mg/kg and a melting point of 191 °C. For the same compound, the “percentage change over placebo” value ([1]; dose 0.1 mg/kg IP) was −17%, the “percentage change over placebo” value ([1]; dose 0.32 mg/kg IP) was −26% and the “percentage change over placebo” value ([1]; dose 1 mg/kg IP) was −100%.
For `[Ba]` [barium], the “block of the Ih channel” value ([5]; 1 mM barium (Ba2+)) is listed as “not blocked”.
`C=CCC(N)c1ccccc1-c1cncc2ccccc12.O=C(O)/C=C/C(=O)O` (stereo not drawn) [16 (2), 2-(isoquinolin-4-yl)-α-2-propenyl-benzenemethanamine (E)-butenedioate] showed an ED50 [3, 7] of 9.9 mg/kg and a melting point of 246 to 248 °C.
With `C=CCC(N)c1ccccc1-c1noc2ccccc12.Cl` (stereo not drawn) [Example 11, 2-(1,2-Benzisoxazol-3-yl)-α-2-propenyl-benzenemethanamine Hydrochloride] the ED50 [3, 6] was 1.04 mg/kg, the melting point was 191 °C and the “percentage change over placebo” value ([1]; dose 0.32 mg/kg IP) was −44%. The “percentage change over placebo” value ([1]; dose 1 mg/kg IP) was −88%.
`C=CCC(N)c1ccccc1-c1ccc(Cl)cc1F.O=C(O)/C=C/C(=O)O` (stereo not drawn) [15 (37), 2-(4-chloro-2-fluorophenyl)-α-2-propenyl-benzenemethanamine (E)-butenedioate] showed an ED50 [3, 7] of 9 mg/kg and a melting point of 213 to 215 °C.
Work on `C=CC[C@H](N)c1ccccc1-c1noc2cc(Cl)ccc12.Cl` [Example 19(2), (S)-(−)-2-(6-chloro-1,2-benzisoxazol-3-yl)-α-2-propenyl-benzenemethanamine hydrochloride] yielded a pIC50-Ih [2] of 6.79 and a melting point of 169 to 178 °C.
For `[Cs]` [caesium], the “concentration blocking Ih” value ([5]; Pape 1996) is given as 1 to 5 mM.
With `O=C(NCCN1CCOCC1)c1ccc(Cl)cc1` [Mo, Moclobemide] the “percentage change over placebo” value ([1]; dose 10 mg/kg IP) was −61% and the “percentage change over placebo” value ([1]; dose 32 mg/kg IP) was −100%.
For `CN(C)CCC=C1c2ccccc2CCc2ccccc21` [Am, Amitriptyline], the “percentage change over placebo” value ([1]; dose 4.6 mg/kg IP) was −22% and the “percentage change over placebo” value ([1]; dose 10 mg/kg IP) was −100%.
With `Cl.NC(Cc1ccccc1)c1ccccc1-c1noc2ccccc12` (stereo not drawn) [36(1), 2-(1,2-benzisoxazol-3-yl)-α-benzyl-benzenemethanamine hydrochloride] the ED50 [3, 6] was 2.5 mg/kg and the melting point was 210 to 246 °C (dec.).
With `C=CCC(N)c1ccccc1-c1noc2cc(Cl)ccc12.Cl` (stereo not drawn) [11(2), 2-(6-chloro-1,2-benzisoxazol-3-yl)-α-2-propenyl-benzenemethanamine hydrochloride] the pIC50-Ih [2] was 6.44, the ED50 [3, 6] was 0.7 mg/kg and the melting point was 174 to 185 °C.
In the case of `C=CCC(N)c1ccccc1-c1noc2cnccc12.O=C(O)/C=C/C(=O)O` (stereo not drawn) [16 (6), 2-(isoxazolo[5,4-c]pyridin-3-yl)-α-2-propenyl-benzenemethanamine (E)-butenedioate], the ED50 [3, 7] is reported as 3.8 mg/kg and the melting point is reported as 183 to 189 °C.
